Entries after “also recorded” stand apart in the source; their conditions may differ.
Columns and labels:
[1] = Diffusion of NES through a dialysis membrane (HPLC); format: physicochemical; details: molecular weight cutoff 1000, HPLC
Description: FIG. 10 is a graph of the amount of Nestorone released from a composition containing the carrageenans of the present invention.
We examined diffusion of NES through a dialysis membrane with a molecular weight cutoff of 1000. The molecular weight of NES is 370. […] Results are illustrated in FIG. 10. […] However, the rate of diffusion observed through the dialysis membrane cannot be related to the rate of diffusion that would be observed in the human vagina as the rate of diffusion was dependant on the surface area of the dialysis bag. Conditions in the vagina would be different.
Diffusion of NES from CARRA/NES was investigated by two different methods, membrane dialysis and Ultrafree-15 centrifugation. In the membrane dialysis experiments, the membrane cutoff is 1,000, and diffusion of NES was measured by HPLC. […] In the Ultrafree-15 centrifugation experiments, a Millipore, Ultrafree-15 centrifugal filter and tube assembly was employed, which allows the passage of molecules of a MW<500 pass through; NES MW is 370.

progestational potency = details: cited from earlier work
[2] = system: androgenic, estrogenic and glucocorticoid-like (hepatic glycogen deposition) activity; details: cited from earlier work
[3] = in vivo; cited from earlier work
[4] = in vivo, po; cited from earlier work
[5] = in vivo, po; cited from earlier work; remark: listed apart in the source
HSV-2 = assay: HSV-2/mouse system, formulations with and without LSA; format: in vivo, mice; details: for effect of addition to the K-II/λ carrageenan composition on efficacy against HSV-2 infection in mice: 5% added
Experimental: LSA-carrageenan was compared to carrageenan in the HSV-2/mouse system in order to determine efficacy in blocking viral infection in vivo.
Each formulation is initially tested in a total of 20 mice. Compounds or formulations that show a blocking effect are assayed again in another 20 mice.
Subsequently, LSA was assayed without Carrageenan to better evaluate its inhibitory properties. LSA was added to the inert thickener, methylcellulose, to maintain the same viscosity that vaginal products (lubricants, spermicides, and microbicides) generally have. (Data shown below.)

HIV = assay: Protection of epithelial cells in vitro against HIV infection; format: cell-based
Description: FIG. 5 is a plot of the percent inhibition by LSA of viral replication as measured by p24 ELISA.
(§1) LSA is effective as a microbicide against HSV-2 infection, HIV, and other STI's, with or without carrageenan. […] The inhibitory effect may be observed with other enveloped viruses such as the human pathogen, human T cell leukemia virus. In addition, epithelial cells are protected against the human papillomavirus, which is not an enveloped virus. The inhibitory efficaciousness of LSA may thus extend to a broader range of STI's.

human papillomavirus = assay: Protection of epithelial cells against human papillomavirus; format: cell-based
Description: as §1

## C=C1C[C@H]2[C@@H]3CCC4=CC(=O)CC[C@@H]4[C@H]3CC[C@]2(C)[C@@]1(OC(C)=O)C(C)=O [NES, 16-methylene-17α-acetoxy-19-norpregn-4-ene-3,20-dione]
[1]
  diffusion of NES through dialysis membrane: diffused from the dialysis bag at a constant rate
Progestational potency
  progestational activity relative to levonorgestrel: 10 times
  progestational activity relative to progesterone: 100 times
[2]
  androgenic, estrogenic and glucocorticoid-like activity: lack of androgenic, estrogenic and glucocorticoid-like
[3]
  metabolism upon oral administration: rapid metabolism and inactivation

## carrageenan
[4]
  toxicity: non-toxic
[5]
  absorption: virtually non-existent
  breakdown in the gastrointestinal tract: minimal at best

## dextran sulfate
HSV-2
  effect of addition to the K-II/λ carrageenan composition on efficacy against HSV-2 infection in mice: had no effect on efficacy

## heparin
HSV-2
  effect of addition to the K-II/λ carrageenan composition on efficacy against HSV-2 infection in mice: had no effect on efficacy

## lignosulfonic acid [LSA]
HSV-2; concentration of 0.25%
  effectiveness of LSA: highly effective
HSV-2; mouse, in vivo
  blocking of HSV-2 infection in mice by LSA without carrageenan: more effective than carrageenan; also recorded: effective in protecting
HIV
  protection of epithelial cells against HIV infection: effective in protecting
Human papillomavirus
  protection of epithelial cells against human papillomavirus: protected

— patent US20050171053A1, “Carrageenan based antimicrobial compositions” (FMC Corporation, priority 2002, published 2005)
